The values that follow come from patent US20080103169A1, “COMPOSITIONS COMPRISING ACID LABILE PROTON PUMP INHIBITING AGENTS, AT LEAST ONE OTHER […] ACTIVE AGENT AND METHODS OF USING SAME” (priority 2006, published 2008).

Where two headings read alike, the source gives them in different places.

Data set [1] can be described thus: PPI half-life (serum concentration profile), n of 1 studies. In kind it is in vivo, human. The note with it: for half-life: human, serum, Day 1, n of 1. An excerpt: The measure of a PPIs activity can be predicted by looking at AUC above 1 micromole. The elimination rate (Kel) is the only variable that can be changed to increase the AUC for a given PPI. Half-life=0.693/Kel
These are all n of 1 studies all performed on the same subject. (Unless otherwise stated, 1.68 g NaHCO3 was used as buffering agent)

A further data set addresses T1, H+, K+-ATPase (Rattus norvegicus, UniProt P09626).
T1 construct: host or cells: rats (in vivo treatment; endogenous gastric enzyme)
As to conditions: cited from earlier work.

The mark [2] stands for this setting: oral, 120 mg, IR 120 mg given alone.
Setting [3] is: oral, given as OME-IR 120 mg+Tenatoprazole IR 40 mg+Cimetidine 200 mg.
Where [4] appears, read: oral, given as OME-IR 120 mg+Tenatoprazole IR 40 mg.

T1 sequence (P09626 whole entry): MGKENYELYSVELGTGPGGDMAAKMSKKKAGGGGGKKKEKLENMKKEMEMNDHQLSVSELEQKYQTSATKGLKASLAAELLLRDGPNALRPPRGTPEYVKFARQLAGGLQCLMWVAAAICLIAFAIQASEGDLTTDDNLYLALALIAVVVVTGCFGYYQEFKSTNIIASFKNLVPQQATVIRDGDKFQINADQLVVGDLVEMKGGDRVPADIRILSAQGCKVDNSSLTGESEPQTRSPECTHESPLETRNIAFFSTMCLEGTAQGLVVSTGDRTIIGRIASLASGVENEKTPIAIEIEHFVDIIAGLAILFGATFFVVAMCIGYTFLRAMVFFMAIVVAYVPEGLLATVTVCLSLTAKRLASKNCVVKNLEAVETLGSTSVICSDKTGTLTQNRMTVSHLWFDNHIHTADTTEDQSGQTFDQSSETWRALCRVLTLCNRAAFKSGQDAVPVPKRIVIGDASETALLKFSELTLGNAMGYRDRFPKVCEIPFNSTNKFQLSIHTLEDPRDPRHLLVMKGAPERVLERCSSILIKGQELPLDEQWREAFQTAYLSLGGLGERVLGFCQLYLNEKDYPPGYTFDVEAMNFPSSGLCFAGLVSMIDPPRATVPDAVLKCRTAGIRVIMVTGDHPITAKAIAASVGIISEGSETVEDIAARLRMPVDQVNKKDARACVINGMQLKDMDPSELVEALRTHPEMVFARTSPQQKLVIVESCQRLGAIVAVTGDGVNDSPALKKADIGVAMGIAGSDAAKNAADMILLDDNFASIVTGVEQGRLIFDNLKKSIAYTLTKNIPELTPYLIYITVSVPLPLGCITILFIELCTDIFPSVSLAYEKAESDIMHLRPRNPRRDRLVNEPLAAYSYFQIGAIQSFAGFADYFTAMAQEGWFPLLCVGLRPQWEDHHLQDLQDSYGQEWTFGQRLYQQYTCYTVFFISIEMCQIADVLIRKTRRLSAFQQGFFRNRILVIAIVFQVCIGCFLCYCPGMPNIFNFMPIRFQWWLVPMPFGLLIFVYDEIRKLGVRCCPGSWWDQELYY
T1 sequence (P18598 whole entry partner): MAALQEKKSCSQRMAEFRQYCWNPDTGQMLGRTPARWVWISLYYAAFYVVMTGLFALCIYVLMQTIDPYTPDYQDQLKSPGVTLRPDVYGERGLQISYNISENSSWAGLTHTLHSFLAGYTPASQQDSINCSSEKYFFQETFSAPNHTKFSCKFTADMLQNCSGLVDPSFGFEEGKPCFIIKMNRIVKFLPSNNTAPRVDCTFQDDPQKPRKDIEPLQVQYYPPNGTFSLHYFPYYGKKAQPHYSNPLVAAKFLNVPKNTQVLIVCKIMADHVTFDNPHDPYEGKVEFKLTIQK

Consider `COc1ccc2nc([S@@+]([O-])Cc3ncc(C)c(OC)c3C)[nH]c2c1` [esomeprazole], for which the half-life (commonly how long it takes for the measured level to halve) in data set [1] (40 mg, 40 mg given alone) is 84 min.
In turn, `Cc1c(OCC(F)(F)F)ccnc1C[S+]([O-])c1nc2ccccc2[nH]1` (stereo not shown) [lansoprazole] had a half-life in data set [1] (oral, given as OME-IR 80 mg+Lansoprazole IR 80 mg) of 186 min.
Regarding `COc1ccc2[nH]c([S+]([O-])Cc3ncc(C)c(OC)c3C)nc2c1` (stereo not shown) [omeprazole, 5-methoxy-2-[[(4-methoxy-3,5-dimethyl-2-pyridinyl)methyl]sulfinyl]-1H benzimidazole], the “effect of omeprazole on H+, K+-ATPase activity” value is “much reduced effect” at H+, K+-ATPase (rats pretreated with cimetidine, compared to control (no pretreatment)) and “increased the effect of omeprazole” on H+, K+-ATPase (rats pretreated with secretogue carbachol). Besides, the half-life of omeprazole entry in data set [1] (administered with cimetidine (FIG. 11)) was “three”. Further, the half-life in data set [1] (setting [2]) was 108 min; in data set [1] (oral, given as OME-IR 120 mg+Cimetidine 200 mg), 126 min; in data set [1] (setting [3]), 108 min; in data set [1] (setting [4]), 108 min.
For the compound `COc1ccc2[nH]c([S+]([O-])Cc3ncc(C)c(OC)c3C)nc2n1` (stereo not shown) [tenatoprazole, 5-methoxy-2-[[(4-methoxy-3,5-dimethyl-2-pyridyl)methyl]sulfinyl]imidazo[4,5-b]pyridine], the half-life in data set [1] (oral, 40 mg, 40 mg given alone) is 420 min; in data set [1] (setting [2]), 522 min; in data set [1] (setting [3]), 774 min; in data set [1] (setting [4]), 774 min.
